# In US20230091336A1, “CANNABINOID COMPOSITIONS” (priority 2020, published 2023):
# Marks after values point to notes of the source that are not given here.
# How the values were obtained:
# [1] = test system: SOCE-mediated increases in intracellular Ca^2+; assay: SOCE dose-response of CBGA (FIG. 15); format: cell-based; conditions: read-out: IC50 inhibition of SOCE-mediated increases in intracellular Ca^2+
# Source text: Data from dose-response curves for the inhibition of TRPM7 currents (dark gray symbols) obtained in experiments shown in FIG. 14 and SOCE-mediated increases in intracellular Ca^2+ (light gray symbols) are shown in FIG. 15.
# [2] = test system: SOCE in Jurkat T cells; assay: SOCE Fura-2 bioassay in Jurkat cells; format: cell-based, human; conditions: for effect on SOCE Ca^2+ signals, pure compounds: 10 μM, 1 μM thapsigargin, FIG. 7A, 7C; for IC50: Homo sapiens, read-out: IC50 SOCE, purified cannabinoids, Jurkat, Table 5
# [3] = test system: SOCE in RBL-2H3 rat mast cells; assay: SOCE Fura-2 bioassay in RBL-2H3 cells; conditions: Rattus norvegicus, RBL-2H3, read-out: IC50 SOCE, purified cannabinoids, RBL-2H3; Table 5
# Method: Briefly, SOCE inhibition experiments were performed as described in Example 8, using each of the hemp extracts listed below and in Tables 6A and 6B at six concentrations each in each of the five cell types listed above to obtain dose response curves, as shown in FIGS. 11A-11SS. […] All data are averages of three independent runs±SEM. […] Hemp extracts used in FIGS. 11A-11SS are: Sour Space Candy (SSC), Hawaiian Haze (HH), Special Sauce (SS), Suver Haze (SH), White CBG (WCBG), Elektra (ELEK), Cherry Wine (CW), Lifter (LIF), Grape Soda (GS).
# [4] = test system: SOCE in Luva human mast cells; assay: SOCE Fura-2 bioassay in Luva cells; conditions: Homo sapiens, Mast cell, read-out: IC50 SOCE, purified cannabinoids, Luva; Table 5
# [5] = test system: CRAC channels (ICRAC); assay: Whole-cell patch clamp of IP3-induced ICRAC in Jurkat cells; format: cell-based, human; conditions: 10 μM, 50 μM IP3
# Method: The ability of CBGA to inhibit store-operated calcium entry (SOCE) within cells was experimentally interrogated (see FIG. 12). Jurkat cells were perfused with 50 μM IP3 to induce store depletion and activation of CRAC channels (the resulting Ca^2+ inward current is known as ICRAC). ICRAC is a long-lasting inward current at −120 mV membrane potential (black trace) that can be blocked by 10 μM CBGA (gray trace).
# (§1) Inward CRAC currents were induced at −120 mV (gray trace) and outward currents at +40 mV (black trace, where CRAC currents reverse and are essentially absent). At the +40 mV voltage potential, TRPM7 channels produce monovalent outward currents. Perfusion of 50 μM IP3 activates ICRAC at −120 mV as above and the removal of intracellular ATP slowly activates TRPM7 current at +40 mV. Application of 10 μM CBGA blocks both outward TRPM7 and inward CRAC currents (see FIG. 13, black and gray traces, respectively). Without being bound by theory, CBGA may also block TRPM7's kinase activity, similar to other TRPM7 blockers such as NS8593.
# [6] = target: TRPM7 (Homo sapiens, UniProt Q96QT4); assay: Whole-cell patch clamp of TRPM7 outward current in Jurkat cells; format: cell-based; set-up: endogenous in cells; host or cells: Jurkat; conditions: 10 μM
# Method: as §1
# [7] = test system: cisplatin-induced nephritis mice; assay: Cisplatin-induced kidney damage mouse model; format: in vivo; conditions: for body-weight loss in cisplatin-induced nephritis mice / kidney weight left / kidney weight right / urine / water intake / body weight: 10 mg/kg i.p.; for body-weight loss in cisplatin-induced nephritis mice: FIG. 25; for creatinine and BUN levels, treatment group vs vehicle group: cisplatin model, first statement of b267; for kidney weight left / kidney weight right / urine / water intake / body weight: cisplatin-induced mice at day 3; for body weight: cisplatin 16 mg/kg, n = 4-5; for kidney weight normalized to body weight / magnesium regulation (serum and urine magnesium) vs cisplatin vehicle group: day 3; for kidney weight normalized to body weight: FIG. 26; for magnesium regulation (serum and urine magnesium) vs cisplatin vehicle group: FIGS. 27A-27B; for kidney function as determined by blood urea nitrogen (BUN): day 3 serum, FIG. 28; for amount of PARP-1 protein in kidney (Western blot): vs cis(+) vehicle, FIG. 30B
# Method: CBGA and/or CBD was injected intraperitoneally (i.p) 2 hours into C57BL/6 male mice (8 wks weighing 23-30 g) before cisplatin injection according to dosage schemes outlined below, and cisplatin-induced kidney damage was compared to normal kidneys. Sham treatment without cisplatin cis(−) was used as a negative control and cisplatin injection cis(+) without cannabinoid extract treatment was used as a positive vehicle control. Mice in group 1 (“vehicle”) received treatment with cisplatin (16 mg/kg body weight, lmg/mL in 0.90% NaCl, i.p) following intraperitoneal injection of vehicle control solution (5 mL/kg body weight) comprising 5% ethanol and 5% Tween80 in 0.9% NaCl. Mice in group 2 (“CBGA”) received treatment with cisplatin (16 mg/kg body weight, 1 mg/mL in 0.9% NaCl, i.p) following injection of CBGA (10 mg/kg body weight) 2 mg/mL in 5% ethanol, 5% Tween80 and 0.9% NaCl Mice in group 3 (“CBD”) received treatment with cisplatin (16 mg/kg body weight, 1 mg/mL in 0.9% NaCl, i.p) following intraperitoneal injection of CBD (10 mg/kg body weight) 2 mg/mL in 5% ethanol, 5% Tween80 and 0.9% NaCl. Mice in group 4 (“CBGA+CBD”) received treatment with cisplatin (16 mg/kg body weight, 1 mg/mL in 0.9% NaCl, i.p) following intraperitoneal injection of CBGA (10 mg/kg body weight)+CBD (10 mg/kg body weight) 2 mg/mL each in 5% ethanol, 5% Tween80 and 0.9% NaCl. Mice in group 5 (“cis(−)”) received sham injections comprising 0.9% NaCl (16 mL/kg body weight) following intraperitoneal injection of vehicle control solution (5 mL/kg body weight) 5% ethanol, 5% Tween80 and 0.9% NaCl.
# Mice were euthanized at Day 3 following cisplatin injection, and kidneys were harvested and stored for processing and analysis.
# Blood and urine were collected and analyzed to check kidney function. Blood was collected following euthanization, and urine was collected for 24 hrs before euthanasia in metabolic cages. […] Creatinine levels and BUN or urea value were measured from blood serum and urine samples to evaluate the kidney function. […] FIG. 29A-29B show measured creatinine levels in cisplatin-induced nephrotic mice at day 3. Urine was collected using a metabolic cage for 24 hours before sacrifice. Creatinine was assessed by an assay kit (n=4-5). Creatinine concentration in serum (FIG. 29A) and creatinine in urine (FIG. 29B) were maintained in cannabinoid-treated mice. *p<0.05 vs. cis(+) vehicle treatment group.
# PARP-1 in cisplatin- and cannabinoid-treated kidney samples was evaluated by Western blot quantification. PARP activity increases to repair DNA damage, while it induces apoptosis when the cells have severe damage and can not be repaired in cisplatin-induced inflammatory kidneys. […] (FIG. 30A) PARP-1 in kidney tissue was evaluated by quantification of Western blot results, wherein α-tubulin was used as an internal control to normalize PARP-1 band quantification. […] PARP-1 was reduced in mice treated with cisplatin and cannabinoids, relative to mice treated with cisplatin and “vehicle” solution (FIG. 30B). Densitometric analysis was performed from the result of western blotting and presented as a bar graph (n=4-5). […] The rightmost bar represents the sham treatment (“cis(−)”), wherein mice received vehicle injections instead of both cisplatin and cannabinoid extracts as a negative control. **p<0.01 vs. cis(+) vehicle treatment group. CBGA reduced the amount of PARP-1 protein detected in cisplatin-induced nephritis mice. […]
# TRPM7, sequence (Q96QT4 whole entry): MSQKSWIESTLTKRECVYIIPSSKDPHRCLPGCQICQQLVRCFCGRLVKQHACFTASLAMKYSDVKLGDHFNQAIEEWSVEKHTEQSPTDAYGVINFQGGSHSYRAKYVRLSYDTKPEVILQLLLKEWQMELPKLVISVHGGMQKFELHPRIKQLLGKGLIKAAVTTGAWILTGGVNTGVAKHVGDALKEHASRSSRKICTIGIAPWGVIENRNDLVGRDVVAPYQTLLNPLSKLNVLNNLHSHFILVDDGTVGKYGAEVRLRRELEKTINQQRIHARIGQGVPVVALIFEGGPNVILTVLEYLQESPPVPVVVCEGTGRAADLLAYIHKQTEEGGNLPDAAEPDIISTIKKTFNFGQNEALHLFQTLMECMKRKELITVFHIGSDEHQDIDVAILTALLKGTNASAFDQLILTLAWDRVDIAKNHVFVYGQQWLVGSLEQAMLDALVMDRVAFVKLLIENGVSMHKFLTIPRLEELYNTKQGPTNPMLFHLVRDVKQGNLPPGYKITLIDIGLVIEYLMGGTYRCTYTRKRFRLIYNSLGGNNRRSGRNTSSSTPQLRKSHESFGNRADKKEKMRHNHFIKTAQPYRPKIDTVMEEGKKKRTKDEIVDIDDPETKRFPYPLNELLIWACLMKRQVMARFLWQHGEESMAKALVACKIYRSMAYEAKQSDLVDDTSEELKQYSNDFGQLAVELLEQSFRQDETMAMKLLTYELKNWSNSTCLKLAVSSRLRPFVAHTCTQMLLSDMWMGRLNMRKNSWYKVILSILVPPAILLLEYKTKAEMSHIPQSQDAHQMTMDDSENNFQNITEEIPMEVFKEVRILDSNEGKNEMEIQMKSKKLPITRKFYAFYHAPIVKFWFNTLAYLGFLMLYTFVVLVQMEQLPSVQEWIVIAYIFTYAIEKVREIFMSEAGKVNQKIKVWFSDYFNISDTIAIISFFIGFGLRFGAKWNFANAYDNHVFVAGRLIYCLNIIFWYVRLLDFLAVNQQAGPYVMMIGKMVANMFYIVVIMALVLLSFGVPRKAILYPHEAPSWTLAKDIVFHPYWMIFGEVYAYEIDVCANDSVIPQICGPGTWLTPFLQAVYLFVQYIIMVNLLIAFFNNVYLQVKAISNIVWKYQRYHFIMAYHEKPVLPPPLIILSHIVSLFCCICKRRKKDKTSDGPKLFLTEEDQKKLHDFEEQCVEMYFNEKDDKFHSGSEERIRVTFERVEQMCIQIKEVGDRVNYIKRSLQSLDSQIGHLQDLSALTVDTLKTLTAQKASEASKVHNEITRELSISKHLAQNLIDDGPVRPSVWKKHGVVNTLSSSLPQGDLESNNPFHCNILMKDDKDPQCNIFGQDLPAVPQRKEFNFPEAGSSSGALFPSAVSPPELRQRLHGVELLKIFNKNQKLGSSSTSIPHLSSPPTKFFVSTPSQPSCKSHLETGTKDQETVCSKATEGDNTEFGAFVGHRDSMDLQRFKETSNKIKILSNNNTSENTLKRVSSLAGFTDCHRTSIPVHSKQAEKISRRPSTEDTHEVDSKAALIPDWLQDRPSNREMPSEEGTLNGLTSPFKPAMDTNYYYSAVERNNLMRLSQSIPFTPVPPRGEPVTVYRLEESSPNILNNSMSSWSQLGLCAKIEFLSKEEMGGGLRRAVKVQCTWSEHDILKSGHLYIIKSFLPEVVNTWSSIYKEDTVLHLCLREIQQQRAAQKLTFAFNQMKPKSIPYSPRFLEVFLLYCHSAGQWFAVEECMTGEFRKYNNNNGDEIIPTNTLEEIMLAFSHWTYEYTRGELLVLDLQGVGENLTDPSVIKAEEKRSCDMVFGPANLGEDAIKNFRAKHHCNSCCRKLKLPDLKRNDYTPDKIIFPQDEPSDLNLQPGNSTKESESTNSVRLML
Compound,IC50 [1] [nM],"effect on SOCE Ca^2+ signals, pure compounds [2]",IC50 [2] [µM],IC50 [3] [µM],IC50 [4] [nM],block of inward calcium current ICRAC at −120 mV [5],block of outward TRPM7 current at +40 mV [6],body-weight loss in cisplatin-induced nephritis mice [7],"creatinine and BUN levels, treatment group vs vehicle group [7]",kidney weight left [7],kidney weight right [7] [mg],urine [7] [mL],water intake [7],body weight [7],kidney weight normalized to body weight [7],magnesium regulation (serum and urine magnesium) vs cisplatin vehicle group [7],kidney function as determined by blood urea nitrogen (BUN) [7],"mRNA expression of inflammatory markers (TNF-α, IL-6, Cxcl10, ICAM-1, MCP-1, CRP, ET-1) in kidney ([7]; qRT-PCR, cis(+)-induced increase, FIGS. 31A-31G)",amount of PARP-1 protein in kidney (Western blot) [7],"combinatory effect on SOCE inhibition when paired with CBGA (isobolographic analysis) ([2]; pairs expected to inhibit 50%, FIGS. 10A-10T)"
"CCCCCc1cc(O)c(C/C=C(\C)CCC=C(C)C)c(O)c1C(=O)O [CBGA, (E)-3-(3,7-dimethylocta-2,6-dien-1-yl)-2,4-dihydroxy-6-pentylbenzoic acid]",~2000,fully block the Ca^2+ signals,0.53,5.72,270,completely blocks,blocks,recovered,did not change,128 ± 8.2** mg,139 ± 10.8,1.162 ± 0.128,2.50 ± 0.50* mL,20.85 ± 1.29 g,No significant difference,maintained magnesium regulation,maintained kidney function,significantly reduced,reduced,–
"C=C(C)[C@@H]1CCC(C)=C[C@H]1c1c(O)cc(CCCCC)cc1O [CBD, (1′R,2′R)-5′-methyl-4-penlyl-2′-(prop-1-en-2-yl)-1′,2′,3′,4′-tetrahydro-[1,1′-biphenyl]-2,6-diol]",–,low to no effects,7.42,> 50,2530,–,–,didn't affect,did not change,121 ± 5.0** mg,132 ± 6.8,1.042 ± 0.131,1.79 ± 0.37** mL,20.23 ± 0.82* g,No significant difference,protected magnesium regulation,maintained kidney function,–,reduced,Simple additive
